The target of one test is T1, B1 bradykinin receptor (Homo sapiens, UniProt P46663).
T1 sequence (P46663 whole entry): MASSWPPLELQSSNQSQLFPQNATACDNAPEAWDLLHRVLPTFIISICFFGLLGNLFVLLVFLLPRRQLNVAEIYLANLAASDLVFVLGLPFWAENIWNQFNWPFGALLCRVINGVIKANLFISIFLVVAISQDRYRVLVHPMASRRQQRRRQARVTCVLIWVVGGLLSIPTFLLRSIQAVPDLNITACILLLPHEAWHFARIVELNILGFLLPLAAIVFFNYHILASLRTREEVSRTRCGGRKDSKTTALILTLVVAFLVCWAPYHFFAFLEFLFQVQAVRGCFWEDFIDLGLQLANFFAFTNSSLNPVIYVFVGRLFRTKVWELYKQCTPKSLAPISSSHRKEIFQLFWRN

Test [1] concerns the target T2, Corticotropin-releasing factor receptor 1 (Homo sapiens, UniProt P34998).
T2 sequence (P34998 whole entry): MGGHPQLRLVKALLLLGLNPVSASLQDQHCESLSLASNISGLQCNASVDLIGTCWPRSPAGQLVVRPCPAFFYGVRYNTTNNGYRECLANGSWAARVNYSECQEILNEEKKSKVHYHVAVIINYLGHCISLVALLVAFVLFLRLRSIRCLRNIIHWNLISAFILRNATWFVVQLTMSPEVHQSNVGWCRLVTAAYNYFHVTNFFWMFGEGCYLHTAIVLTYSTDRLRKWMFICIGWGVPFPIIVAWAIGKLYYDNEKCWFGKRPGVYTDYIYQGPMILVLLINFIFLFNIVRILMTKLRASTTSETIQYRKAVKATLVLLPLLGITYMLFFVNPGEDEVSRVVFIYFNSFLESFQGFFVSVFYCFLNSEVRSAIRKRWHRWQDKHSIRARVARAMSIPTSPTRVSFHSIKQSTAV

In test [2] the target is T3, Corticotropin-releasing factor receptor 2 (Homo sapiens, UniProt Q13324).
T3 sequence (Q13324 whole entry): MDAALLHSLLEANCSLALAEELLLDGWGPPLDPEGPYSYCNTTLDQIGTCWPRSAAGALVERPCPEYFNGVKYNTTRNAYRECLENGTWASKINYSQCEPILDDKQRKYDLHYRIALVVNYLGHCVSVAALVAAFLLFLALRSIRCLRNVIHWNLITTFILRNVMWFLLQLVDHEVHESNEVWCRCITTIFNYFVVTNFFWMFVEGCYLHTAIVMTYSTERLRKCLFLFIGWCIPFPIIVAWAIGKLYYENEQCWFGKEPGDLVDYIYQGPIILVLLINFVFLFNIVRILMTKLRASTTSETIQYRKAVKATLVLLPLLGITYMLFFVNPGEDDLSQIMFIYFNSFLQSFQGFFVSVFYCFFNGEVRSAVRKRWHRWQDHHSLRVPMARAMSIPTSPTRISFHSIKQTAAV

Another test addresses T4, D(4) dopamine receptor (Homo sapiens, UniProt P21917).
T4 sequence (P21917 whole entry): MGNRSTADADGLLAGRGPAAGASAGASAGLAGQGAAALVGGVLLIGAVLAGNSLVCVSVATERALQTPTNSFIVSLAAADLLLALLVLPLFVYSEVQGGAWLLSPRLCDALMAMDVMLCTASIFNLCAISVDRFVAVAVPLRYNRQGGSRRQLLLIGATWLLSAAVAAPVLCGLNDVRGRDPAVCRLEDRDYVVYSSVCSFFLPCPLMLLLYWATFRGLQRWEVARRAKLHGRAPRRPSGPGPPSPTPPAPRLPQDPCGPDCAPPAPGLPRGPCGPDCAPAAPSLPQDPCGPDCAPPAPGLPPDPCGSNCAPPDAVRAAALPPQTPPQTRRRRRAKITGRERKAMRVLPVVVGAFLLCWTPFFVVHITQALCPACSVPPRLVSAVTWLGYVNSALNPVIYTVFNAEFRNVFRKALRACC

For test [3], the target named is T5, Endothelin receptor type B (Homo sapiens, UniProt P24530).
T5 sequence (P24530 whole entry): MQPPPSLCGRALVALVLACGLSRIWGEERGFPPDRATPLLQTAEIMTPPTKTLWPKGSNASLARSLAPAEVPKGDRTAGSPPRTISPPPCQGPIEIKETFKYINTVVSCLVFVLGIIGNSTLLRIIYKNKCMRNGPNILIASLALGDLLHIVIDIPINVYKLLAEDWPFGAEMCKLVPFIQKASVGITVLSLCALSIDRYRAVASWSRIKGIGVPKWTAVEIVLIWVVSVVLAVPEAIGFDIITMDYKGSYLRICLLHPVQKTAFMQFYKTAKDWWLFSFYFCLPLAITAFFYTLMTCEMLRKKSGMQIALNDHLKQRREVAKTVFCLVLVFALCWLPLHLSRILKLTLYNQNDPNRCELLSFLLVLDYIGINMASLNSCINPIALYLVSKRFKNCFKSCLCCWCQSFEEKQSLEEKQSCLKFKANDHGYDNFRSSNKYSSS

The target in test [4] is Gamma-aminobutyric acid type B receptor subunit 1 (Homo sapiens, UniProt Q9UBS5).
A further test has as its target Glucagon receptor (Homo sapiens, UniProt P47871).
The target of a further test is Histamine H1 receptor (Homo sapiens, UniProt P35367). In kind it is functional, cell-based.
The target in another test is Substance-P receptor (Homo sapiens, UniProt P25103).
Test [5] addresses T6, Muscarinic acetylcholine receptor M2 (Homo sapiens, UniProt P08172).
T6 sequence (P08172 whole entry): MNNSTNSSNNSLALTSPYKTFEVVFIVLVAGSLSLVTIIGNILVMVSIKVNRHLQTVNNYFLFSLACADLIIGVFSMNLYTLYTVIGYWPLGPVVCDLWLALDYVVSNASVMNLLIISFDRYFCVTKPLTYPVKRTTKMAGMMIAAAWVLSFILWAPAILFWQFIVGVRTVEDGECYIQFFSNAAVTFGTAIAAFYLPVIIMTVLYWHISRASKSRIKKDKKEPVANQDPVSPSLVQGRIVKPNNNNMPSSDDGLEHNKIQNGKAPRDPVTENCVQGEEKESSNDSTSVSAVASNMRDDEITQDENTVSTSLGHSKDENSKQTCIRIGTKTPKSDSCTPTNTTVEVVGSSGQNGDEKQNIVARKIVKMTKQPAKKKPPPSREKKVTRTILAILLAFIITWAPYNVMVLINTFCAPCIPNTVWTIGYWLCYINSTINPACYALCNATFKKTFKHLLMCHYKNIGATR
Note: assay procedure not described here.

Chain of Substance-P receptor (P25103 whole entry): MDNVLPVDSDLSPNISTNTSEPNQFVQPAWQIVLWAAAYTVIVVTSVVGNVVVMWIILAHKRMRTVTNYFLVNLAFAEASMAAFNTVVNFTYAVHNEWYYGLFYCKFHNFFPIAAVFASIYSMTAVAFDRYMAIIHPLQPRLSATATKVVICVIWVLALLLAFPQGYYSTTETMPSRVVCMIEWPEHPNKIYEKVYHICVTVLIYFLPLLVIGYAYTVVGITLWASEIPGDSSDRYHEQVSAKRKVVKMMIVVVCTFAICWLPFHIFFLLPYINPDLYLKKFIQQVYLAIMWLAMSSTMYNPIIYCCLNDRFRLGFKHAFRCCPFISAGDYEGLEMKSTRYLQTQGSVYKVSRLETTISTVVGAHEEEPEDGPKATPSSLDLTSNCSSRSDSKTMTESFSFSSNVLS
Chain of Gamma-aminobutyric acid type B receptor subunit 1 (Q9UBS5 whole entry): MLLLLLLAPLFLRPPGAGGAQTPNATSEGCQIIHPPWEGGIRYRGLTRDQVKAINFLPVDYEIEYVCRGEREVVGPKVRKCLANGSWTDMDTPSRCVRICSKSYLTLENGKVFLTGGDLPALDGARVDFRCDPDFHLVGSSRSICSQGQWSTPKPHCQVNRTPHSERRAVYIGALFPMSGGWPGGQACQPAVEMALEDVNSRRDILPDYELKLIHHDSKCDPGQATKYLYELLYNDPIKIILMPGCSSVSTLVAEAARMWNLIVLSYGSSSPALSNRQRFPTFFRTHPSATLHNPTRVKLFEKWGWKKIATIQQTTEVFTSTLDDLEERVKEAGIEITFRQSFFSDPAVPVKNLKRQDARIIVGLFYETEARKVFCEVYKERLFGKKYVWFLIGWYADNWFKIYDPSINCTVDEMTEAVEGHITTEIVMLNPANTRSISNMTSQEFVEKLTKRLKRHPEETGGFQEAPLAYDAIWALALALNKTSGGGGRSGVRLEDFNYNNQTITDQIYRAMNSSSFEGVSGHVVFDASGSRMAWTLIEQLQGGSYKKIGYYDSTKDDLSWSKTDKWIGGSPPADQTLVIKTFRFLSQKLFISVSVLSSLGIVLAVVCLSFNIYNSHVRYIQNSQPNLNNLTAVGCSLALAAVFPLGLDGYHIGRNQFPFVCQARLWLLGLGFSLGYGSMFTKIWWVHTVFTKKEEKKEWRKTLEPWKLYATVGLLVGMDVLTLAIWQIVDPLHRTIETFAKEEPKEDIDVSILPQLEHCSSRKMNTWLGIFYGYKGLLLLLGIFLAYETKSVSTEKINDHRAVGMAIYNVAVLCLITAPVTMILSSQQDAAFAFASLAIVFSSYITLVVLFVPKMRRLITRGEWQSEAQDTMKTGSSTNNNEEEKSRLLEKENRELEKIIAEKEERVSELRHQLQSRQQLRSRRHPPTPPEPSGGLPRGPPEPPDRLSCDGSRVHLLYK
Chain of Histamine H1 receptor (P35367 whole entry): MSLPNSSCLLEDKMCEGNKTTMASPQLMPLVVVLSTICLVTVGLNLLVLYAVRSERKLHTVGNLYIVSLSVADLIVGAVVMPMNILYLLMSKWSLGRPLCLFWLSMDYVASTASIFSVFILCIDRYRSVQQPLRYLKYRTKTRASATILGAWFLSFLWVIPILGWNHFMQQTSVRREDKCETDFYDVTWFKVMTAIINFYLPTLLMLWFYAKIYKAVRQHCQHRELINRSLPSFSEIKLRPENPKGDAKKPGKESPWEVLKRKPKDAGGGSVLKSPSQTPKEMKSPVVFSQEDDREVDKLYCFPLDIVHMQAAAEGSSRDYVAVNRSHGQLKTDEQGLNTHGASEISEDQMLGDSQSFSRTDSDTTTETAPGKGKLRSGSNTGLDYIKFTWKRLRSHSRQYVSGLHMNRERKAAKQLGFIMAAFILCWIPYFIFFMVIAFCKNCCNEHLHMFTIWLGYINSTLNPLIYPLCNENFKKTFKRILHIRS
Chain of Glucagon receptor (P47871 whole entry): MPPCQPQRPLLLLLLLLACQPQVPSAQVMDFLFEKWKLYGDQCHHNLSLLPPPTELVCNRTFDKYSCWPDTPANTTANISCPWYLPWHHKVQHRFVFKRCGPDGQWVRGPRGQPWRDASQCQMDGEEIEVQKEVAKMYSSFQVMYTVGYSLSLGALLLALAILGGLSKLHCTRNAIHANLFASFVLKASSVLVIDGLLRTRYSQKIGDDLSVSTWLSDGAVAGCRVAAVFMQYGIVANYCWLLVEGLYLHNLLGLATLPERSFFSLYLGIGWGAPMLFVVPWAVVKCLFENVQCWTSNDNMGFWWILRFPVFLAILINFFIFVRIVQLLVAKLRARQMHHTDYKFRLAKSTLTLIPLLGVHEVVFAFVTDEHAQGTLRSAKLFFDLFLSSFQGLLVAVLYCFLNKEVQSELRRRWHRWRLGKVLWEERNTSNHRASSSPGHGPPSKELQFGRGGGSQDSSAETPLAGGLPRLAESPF

One may read the AC50 as the concentration at which the activity in the assay is half-maximal. A high value points to weaker potency. `CNS(=O)(=O)Cc1ccc2[nH]cc(CCN(C)C)c2c1`: the concentration at half-maximal activity (AC50) at B1 bradykinin receptor was > 30 µM; in [1], > 30 µM; in test [2], > 30 µM; on D(4) dopamine receptor, > 10 µM; in [3] it was > 30 µM; in test [4] it was > 10 µM. The concentration at half-maximal activity (AC50) at Glucagon receptor is > 30 µM.

Take `NCC(=O)CCC(=O)O` [AMINOLEVULINIC ACID]: at Histamine H1 receptor, the concentration at half-maximal activity (AC50) was > 30 µM.

As to `COc1ccc2c3c1O[C@H]1[C@@H](O)C=C[C@H]4[C@@H](C2)N(C)CC[C@@]341` [CODEINE], the concentration at half-maximal activity (AC50) was > 30 µM on B1 bradykinin receptor; > 30 µM in [1]; > 30 µM in test [2]; > 10 µM at D(4) dopamine receptor; > 30 µM in test [3]; > 10 µM in test [4]. For the same molecule, the half-maximal activity concentration (AC50) was > 30 µM on Glucagon receptor, > 10 µM at Substance-P receptor and > 10 µM in test [5].

`CCCCc1ncc(/C=C(\Cc2cccs2)C(=O)O)n1Cc1ccc(C(=O)O)cc1` [EPROSARTAN]: the concentration at half-maximal activity (AC50) was > 30 µM on B1 bradykinin receptor; > 30 µM in test [1]; > 30 µM in test [2]; > 10 µM on D(4) dopamine receptor; > 30 µM in [3]; > 10 µM in [4]. The AC50 at Glucagon receptor is > 30 µM; at Histamine H1 receptor, > 30 µM; at Substance-P receptor it was > 10 µM; in test [5] it was > 10 µM.

As for `CCc1c(Cl)c(O)c(Cl)c(O)c1C(=O)O[C@H]1[C@H](O)[C@H](OC)[C@H](OC/C2=C\C=C\C[C@H](O)/C(C)=C/[C@H](CC)[C@@H](O[C@@H]3OC(C)(C)[C@@H](OC(=O)C(C)C)[C@H](O)[C@@H]3O)/C(C)=C/C(C)=C/C[C@@H]([C@@H](C)O)OC2=O)O[C@@H]1C` [FIDAXOMICIN], the AC50 on B1 bradykinin receptor is > 30 µM; in test [1], > 30 µM; in test [2] it was > 30 µM; at D(4) dopamine receptor, > 10 µM; in [3] it was > 30 µM; on Glucagon receptor it was > 30 µM. Further, the figures for the concentration at half-maximal activity (AC50) (on Substance-P receptor; in test [5]) were 5.92 µM and > 10 µM, respectively.

As to `CC(C)(C)c1cc(C(C)(C)C)c(NC(=O)c2c[nH]c3ccccc3c2=O)cc1O` [IVACAFTOR], the AC50 in test [5] is > 10 µM.

For the molecule `CC(C)OC(=O)CCC/C=C\C[C@@H]1[C@@H](CC[C@@H](O)CCc2ccccc2)[C@H](O)C[C@@H]1O` [LATANOPROST], on Histamine H1 receptor, the concentration at half-maximal activity (AC50) was > 30 µM.

For the molecule `CCC1(CC)C(=O)NCC(C)C1=O` (stereo not given) [METHYPRYLON], at Histamine H1 receptor, the half-maximal activity concentration (AC50) is > 30 µM.

Consider `CCCc1nc(C(C)(C)O)c(C(=O)OCc2oc(=O)oc2C)n1Cc1ccc(-c2ccccc2-c2nnn[nH]2)cc1` [OLMESARTAN MEDOXOMIL], for which the AC50 on B1 bradykinin receptor is > 50 µM; in [1], > 30 µM; in [2], > 30 µM; at D(4) dopamine receptor, > 10 µM; in [3], > 50 µM; at Glucagon receptor, > 50 µM. Besides, the AC50 on Substance-P receptor was > 10 µM.

On to `N#Cc1ccc([C@H]2CCc3cncn32)c(F)c1` [OSILODROSTAT], for which the half-maximal activity concentration (AC50) (on B1 bradykinin receptor; on D(4) dopamine receptor; in test [3]; in test [4]; on Substance-P receptor; in test [5]) was > 10 µM throughout.

Regarding `CC[C@@H]1C(=O)OC[C@@H]1Cc1cncn1C` [PILOCARPINE], on Histamine H1 receptor, the half-maximal activity concentration (AC50) was > 30 µM.

For the molecule `CN1CCC(=C2c3ccccc3CCc3sccc32)CC1` [PIZOTYLINE], the half-maximal activity concentration (AC50) on Histamine H1 receptor was determined as 0.0681 µM; in [5], 0.059 µM.

`CCCN(CCC)C(=O)C(CCC(=O)O)NC(=O)c1ccccc1` (stereo not given) [PROGLUMIDE]: the half-maximal activity concentration (AC50) at B1 bradykinin receptor is > 30 µM; in test [1], > 30 µM; in test [2], > 30 µM; on D(4) dopamine receptor, > 10 µM; in test [3], > 30 µM; on Glucagon receptor, > 30 µM. For the same molecule, the AC50 (on Substance-P receptor; in test [5]) was > 10 µM throughout.

As for `CN1C(=O)C(O)N=C(c2ccccc2)c2cc(Cl)ccc21` (stereo not given) [TEMAZEPAM], the half-maximal activity concentration (AC50) at B1 bradykinin receptor was > 30 µM; in test [1], > 30 µM; in test [2], > 30 µM; at D(4) dopamine receptor, > 10 µM; in test [3], > 30 µM; at Glucagon receptor, > 30 µM. The AC50 (on Substance-P receptor; in test [5]) was > 10 µM throughout.

For the molecule `CCN(CC)C(=O)N[C@H]1C[C@@H]2c3cccc4[nH]cc(c34)C[C@H]2N(C)C1` [TERGURIDE], the half-maximal activity concentration (AC50) at Histamine H1 receptor was 7.49 µM.

`CN1CCN(CC/C=C2/c3ccccc3Sc3ccc(S(=O)(=O)N(C)C)cc32)CC1` [THIOTHIXENE]: the AC50 is > 30 µM on B1 bradykinin receptor; > 30 µM in test [1]; > 30 µM in [2]; 0.78 µM at D(4) dopamine receptor; > 30 µM in test [3]; > 10 µM in [4]. Besides, the figures for the AC50 at Glucagon receptor and on Substance-P receptor were > 30 µM and 3.84 µM, respectively.

Regarding `O=C(NCCNCC(O)COc1ccc(O)cc1)N1CCOCC1` (stereo not given) [XAMOTEROL], the AC50 on Histamine H1 receptor is > 30 µM.

The values are drawn from ChEMBL document CHEMBL5291721, “A preclinical secondary pharmacology resource illuminates target-adverse drug reaction associations of marketed drugs” (Nat Commun, 2023).
